Experimental data published in PubChem BioAssay AID434942 (Johns Hopkins Ion Channel Center, 2010).

Biological target: Short transient receptor potential channel 4 (Mus musculus) (UniProt Q9QUQ5)
Assay: block of DAMGO-driven TRPC4 calcium entry – cell-based, HEK293 TRPC4/mu-opioid, Fluo-4 calcium, dose response (AID 434942);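 further: potency of inhibitors blocking the DAMGO-evoked TRPC4 calcium rise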
Details: HEK293 TRPC4/mu-opioid cells, DAMGO-evoked Fluo-4 calcium ratio

Chain of Short transient receptor potential channel 4 (Mus musculus) (Q9QUQ5 whole entry, looked up): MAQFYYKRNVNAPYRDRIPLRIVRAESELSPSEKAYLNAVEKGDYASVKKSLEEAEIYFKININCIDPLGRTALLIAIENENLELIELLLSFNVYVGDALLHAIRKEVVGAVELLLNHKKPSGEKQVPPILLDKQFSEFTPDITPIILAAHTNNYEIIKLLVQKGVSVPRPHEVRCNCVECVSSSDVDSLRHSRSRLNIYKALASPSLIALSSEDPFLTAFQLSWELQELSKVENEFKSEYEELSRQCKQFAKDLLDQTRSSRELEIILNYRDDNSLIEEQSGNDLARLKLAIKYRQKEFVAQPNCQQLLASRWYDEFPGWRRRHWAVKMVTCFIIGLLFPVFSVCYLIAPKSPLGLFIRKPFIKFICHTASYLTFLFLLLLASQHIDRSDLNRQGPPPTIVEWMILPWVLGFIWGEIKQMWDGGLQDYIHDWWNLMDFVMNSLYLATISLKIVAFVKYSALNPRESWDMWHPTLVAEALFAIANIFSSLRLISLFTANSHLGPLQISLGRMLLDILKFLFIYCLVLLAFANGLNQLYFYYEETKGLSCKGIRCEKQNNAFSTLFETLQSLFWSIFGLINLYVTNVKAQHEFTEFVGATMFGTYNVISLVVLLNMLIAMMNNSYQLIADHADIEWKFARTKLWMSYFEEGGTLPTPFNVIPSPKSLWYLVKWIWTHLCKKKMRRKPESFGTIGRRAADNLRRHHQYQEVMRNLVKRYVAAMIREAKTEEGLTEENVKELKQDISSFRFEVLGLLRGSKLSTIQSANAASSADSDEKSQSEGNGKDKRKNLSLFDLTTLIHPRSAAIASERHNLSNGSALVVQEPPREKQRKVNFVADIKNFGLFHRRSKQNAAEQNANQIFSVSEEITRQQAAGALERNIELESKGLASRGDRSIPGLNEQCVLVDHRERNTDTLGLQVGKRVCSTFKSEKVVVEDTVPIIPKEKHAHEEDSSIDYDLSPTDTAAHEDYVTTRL

## CC1Cc2ccccc2N1C(=O)CSc1nc2c(c(=O)n(C)c(=O)n2C)n1Cc1ccccc1 (configuration not stated)
  IC50: 2110 nM

## CC(=O)Nc1ccc(C2(c3ccc(NC(C)=O)cc3)C(=O)Nc3ccccc32)cc1
  IC50: 1500 nM
